The results in this text go back to ChEMBL document CHEMBL3507680, “University of Dundee, Gates Library screen for HepG2 cell viability”.

Molecules are shown by their SMILES.

The nature of this data set: Human HepG2 cell viability assay in 384 well format. The note with it: HepG2 cells, read-out: Inhibition. The format is toxicity, cell-based. Set-up: dose 125 nL, time 70.5 hour; cytotoxicity at 70.5 h: concentration not given beside the values.
With `O=C(C(CNCc1cccs1)c1ccccc1)N1CCOCC1` (stereo unspecified), the cytotoxicity at 70.5 h turned out to be 7.5%.

Turning to `CCOc1ccc(CN2C(=O)CC(C)(C(C)C)C2=O)nc1` (stereo unspecified), the cytotoxicity at 70.5 h amounted to 0.245%.

Turning to `Cc1nn(C)c(N(C)C)c1CNCc1ccc(Cn2cccn2)cc1`, the cytotoxicity at 70.5 h is -4.86%.

Consider `CC(C)n1cnnc1CN(C)Cc1ccoc1`, for which the cytotoxicity at 70.5 h was -2.84%.

Turning to `Cc1nnsc1C(=O)NCc1cccnc1N1CCc2ccccc2C1`, the cytotoxicity at 70.5 h was determined as 16.7%.

Consider `c1cncc(-c2nnc([C@H]3CCN(CC4CC4)C3)o2)c1`, for which the cytotoxicity at 70.5 h worked out at 8.27%.

On to `Cc1ccc(S(=O)(=O)NCc2[nH]ncc2Br)cc1F`, for which the cytotoxicity at 70.5 h was -1.86%.

Consider `CN1CCN(c2ncc3c(c2C(=O)O)CCN(C2CCOC2)C3)CC1` (stereo unspecified), for which the cytotoxicity at 70.5 h was -7.02%.

In the case of `Cc1nc(C)c(CNC(=O)NC(c2nnc3n2CCC3)C(C)C)s1` (stereo unspecified), the cytotoxicity at 70.5 h is -1.59%.

For `CC(C)(C)c1nc(CNC2CCN(S(C)(=O)=O)CC2)cs1`, the cytotoxicity at 70.5 h was -8.36%.

In the case of `CN(C)CC1(O)CCN(S(=O)(=O)c2ccc(Cl)cc2)C1` (stereo unspecified), the cytotoxicity at 70.5 h came to 3.29%.

Consider `Cc1nc(N2CCCC2)nc2c1CN(C(=O)N(C)C)CC2`, for which the cytotoxicity at 70.5 h is -1.53%.

For `CC(=O)N1C[C@@H]2C(=O)N(C)C3(CCN(C(=O)C(C)C)CC3)[C@@H]2C1`, the cytotoxicity at 70.5 h was -7.63%.

Regarding `CCS(=O)(=O)CCn1ccc(NC(=O)CCc2cccc(C)c2)n1`, the cytotoxicity at 70.5 h was -2.75%.

As for `Cc1cc(NC(=O)c2nn(C3CCS(=O)(=O)C3)c3c2CCCC3)no1` (stereo unspecified), the cytotoxicity at 70.5 h was -24.1%.

On to `CCN(CC)[C@@H]1CN(C(=O)c2ccnnc2)[C@@H]2CCCO[C@H]12`, for which the cytotoxicity at 70.5 h was -8.7%.

For the compound `Cc1cc(C)n(CCCNC(=O)C(C)NC(=O)CC2CCCCC2)n1` (stereo unspecified), the cytotoxicity at 70.5 h was -5.96%.

As to `O=C(NCCC(=O)N1CCCc2ccccc21)c1c(O)cc(F)cc1F`, the cytotoxicity at 70.5 h was -9.76%.

Take `CN(Cc1ccco1)C(=O)NCc1ccnc(SC(C)(C)C)c1`: the cytotoxicity at 70.5 h was -8.67%.

For `CC(C)NC(=O)c1ccc2c(c1)C1(CCN(C(C)C)CC1)C(=O)N2`, the cytotoxicity at 70.5 h turned out to be 0.266%.

Regarding `COCCN1CCCC2(CCN(c3ccsc3)C2=O)C1` (stereo unspecified), the cytotoxicity at 70.5 h is -7.27%.

Consider `CCc1nc(C2CCCN2Cc2nnc(Cc3ccccc3)o2)no1` (stereo unspecified), for which the cytotoxicity at 70.5 h is -10.8%.

In the case of `COc1cc(CC2CC(C(N)=O)=NO2)cc2c1OCO2` (stereo unspecified), the cytotoxicity at 70.5 h was -7.88%.

In the case of `CC1=Nc2c(c(O)nn2C2CCOCC2)C(c2cccnc2)S1` (stereo unspecified), the cytotoxicity at 70.5 h is -3.81%.

As for `CC(C)c1nc(C2CCCN2C(=O)c2cnns2)no1` (stereo unspecified), the cytotoxicity at 70.5 h was -1.79%.

For the compound `CCN(CC)C1COc2c(cc(Br)c(C)c2Br)C1=O` (stereo unspecified), the cytotoxicity at 70.5 h is -7.72%.

Take `CCn1c(NCc2ccccc2)nc2c(C)nn(C)c2c1=O`: the cytotoxicity at 70.5 h is -9.48%.

Consider `O[C@H]1CN(CCCOc2ccccc2F)CC[C@@]12CCCO2`, for which the cytotoxicity at 70.5 h is -2.73%.

Regarding `CN(C)CCN1CCC2(CCN(C(=O)c3ccncc3)CC2)C1=O`, the cytotoxicity at 70.5 h is -7.69%.

On to `Cc1cccnc1CN(C)c1ncnc2[nH]ccc12`, for which the cytotoxicity at 70.5 h was -6.05%.

Take `COc1ccnc(NC(=O)c2cscn2)c1`: the cytotoxicity at 70.5 h was -10.4%.

Take `CNC(=O)c1cccc(CNC(C)c2cc(C)ccc2OC(F)F)c1` (stereo unspecified): the cytotoxicity at 70.5 h was -7.54%.

`O=C(Nc1ccccc1OCC(F)F)N[C@@H]1C=C[C@H](CO)C1`: the cytotoxicity at 70.5 h worked out at 4.97%.

In the case of `CCN(CC)CCNC(=O)c1nn(CC)cc1Cl`, the cytotoxicity at 70.5 h amounted to 18.6%.

`CCN1CCN(C2CCN(Cc3noc(C4CC4)n3)CC2)C1=O`: the cytotoxicity at 70.5 h was -3.61%.

Turning to `CO[C@H]1CC[C@H]2[C@H]1OCCN2C(=O)c1nn(C)c2ccccc12`, the cytotoxicity at 70.5 h is -3.21%.

With `CCOc1ccc(C(=O)CC(SC2CCCCC2)C(=O)O)cc1` (stereo unspecified), the cytotoxicity at 70.5 h was -6.29%.

With `CN1CCN(CCCNCc2cc(O)c3cc(F)ccc3n2)CC1`, the cytotoxicity at 70.5 h was -4.99%.

In the case of `CCc1nnc(CNCC2CCCN2c2cccnn2)o1` (stereo unspecified), the cytotoxicity at 70.5 h was -3.72%.

On to `CSc1ccccc1NC(=O)CCN1CCC(C(=O)N(C)C)CC1`, for which the cytotoxicity at 70.5 h was found to be 2.74%.

In the case of `Cc1ccc(C)c(S(=O)(=O)CCN2CCc3c(ncn3C)C2)c1`, the cytotoxicity at 70.5 h worked out at 16%.

Consider `COCC(=O)N1C[C@@H](OCc2cccnc2)[C@H]2OCCC[C@@H]21`, for which the cytotoxicity at 70.5 h worked out at 14.3%.

Regarding `Cc1ccc(CCNC(=O)Nc2cc(C(F)(F)F)c[nH]c2=O)o1`, the cytotoxicity at 70.5 h was -4.56%.

For `Cc1cc(C)c2cc(C(=O)N3CCN(Cc4ccco4)CC3)[nH]c2c1`, the cytotoxicity at 70.5 h is -13.2%.

`Cc1cc(C(=O)N2CCCC(c3nncn3C)C2)no1` (stereo unspecified): the cytotoxicity at 70.5 h was -5.95%.

Take `COC(C)(C)CNC(=O)N1CCC(n2ccc(C(F)(F)F)n2)CC1`: the cytotoxicity at 70.5 h is -76.1%.

As for `c1coc(CN2CCC3(CCOCC3COCC3CC3)CC2)c1` (stereo unspecified), the cytotoxicity at 70.5 h came to 2.33%.

For the compound `CCO[C@@H]1CC[C@H]2[C@H]1OCCN2CC1CCOCC1`, the cytotoxicity at 70.5 h turned out to be 38.8%.

On to `Cc1nnsc1C(=O)N1CCCC(n2nnc3cc(F)ccc32)C1` (stereo unspecified), for which the cytotoxicity at 70.5 h was -5.58%.

On to `CCOc1cccc(C(C)NCc2ccc(OC)c(OC)c2OC)c1` (stereo unspecified), for which the cytotoxicity at 70.5 h turned out to be 6.82%.

In the case of `Cc1nc(N2CCCC2)nc2c1CCN(C(=O)C1CCC1)CC2`, the cytotoxicity at 70.5 h is -12.5%.

Regarding `COCCN1CCCn2cnc(CN(C)C(C)C)c2C1`, the cytotoxicity at 70.5 h is 4.24%.

`CN1CC2(CCN(C(=O)c3cccnc3)CC2)c2cccc(F)c21`: the cytotoxicity at 70.5 h was -0.505%.

As to `CCC(NC(=O)C1CCN(S(C)(=O)=O)CC1)c1ccc(C)cc1` (stereo unspecified), the cytotoxicity at 70.5 h is -3.68%.

As for `Cc1cc2n(n1)CC(CNC1CCN(c3ccc(F)cc3)CC1)CN2` (stereo unspecified), the cytotoxicity at 70.5 h was -5.25%.

Take `Cc1nn(CCC#N)c(C)c1CCC(=O)N(C)C`: the cytotoxicity at 70.5 h amounted to 13.3%.

As to `Cc1cc(CN2CCN(C(=O)NCc3csc(C)n3)CC2)on1`, the cytotoxicity at 70.5 h was -13%.

With `CN(Cc1csc(-c2cccs2)n1)C(=O)CN1CCOC1=O`, the cytotoxicity at 70.5 h was -3.58%.

Regarding `CC[C@H](CO)NC(=O)c1coc(COc2cccc(F)c2F)n1`, the cytotoxicity at 70.5 h turned out to be 9.55%.

Take `Cc1ccc(CN2CCC3(C2)C(=O)N(CC(C)C)c2ccccc23)s1` (stereo unspecified): the cytotoxicity at 70.5 h is -7.14%.

As for `O=C(c1cccc(S(=O)(=O)NCCCc2ncc[nH]2)c1)N1CCOCC1`, the cytotoxicity at 70.5 h is -9.14%.

In the case of `CNC(=O)[C@@H]1C[C@@H](NC(=O)CSc2ccccc2)CN1C1CCOCC1`, the cytotoxicity at 70.5 h is 14.1%.

On to `COCC1CN(C(=O)Cc2ccccn2)Cc2c1cnn2CC1CC1` (stereo unspecified), for which the cytotoxicity at 70.5 h was -13.1%.

Regarding `O=C(c1cc[nH]n1)N(Cc1cccc(O)c1)CC1CC1`, the cytotoxicity at 70.5 h is -7.41%.

Regarding `C[C@@H]1CN(S(=O)(=O)N2CCOCC2)C[C@@]1(O)C1CC1`, the cytotoxicity at 70.5 h is -2.98%.

For `CN(c1cccnc1N1CCCC1)S(=O)(=O)c1cnn(C)c1`, the cytotoxicity at 70.5 h was 5.43%.

As to `CN(C)C(c1ccccn1)[C@H]1CC[C@H](CNC(=O)C2CCCC2)CC1` (stereo partly specified), the cytotoxicity at 70.5 h was -2.3%.

Consider `Cc1ccc(-c2cc(C(=O)N3CCCC3c3cccnc3)[nH]n2)o1` (stereo unspecified), for which the cytotoxicity at 70.5 h is -4.23%.

Regarding `c1csc(-c2nc(CN3CCCC3Cn3cncn3)co2)c1` (stereo unspecified), the cytotoxicity at 70.5 h is -10.5%.

Consider `O=S(=O)(Cc1nc(C2CC2)no1)c1ccccc1F`, for which the cytotoxicity at 70.5 h was -11.9%.

With `Cc1csc([C@@H]2C[C@@H]3CCN(C(=O)c4cccn4C)C[C@H]3O2)n1`, the cytotoxicity at 70.5 h was determined as 9.1%.
